Data on two compounds can be found in patent US9957472B2, “Deterministic high-density single-cell trap array” (Georgia Tech Research Corporation, priority 2011, dated 2018).

Test [1] relates to Jurkat cells. Briefly: Calcium response of trapped Fluo-3-loaded Jurkat cells to ionomycin on chip (cell trap arrays with concentration gradient generator). The test is classed as cell-based, human. As for the experimental part:
Jurkat E6-1 human acute T cell lymphoma cells (ATCC) were cultured in RPMI 1640 medium with L-glutamine (Sigma-Aldrich, St. Louis, Mo.) with 10 mM HEPES, 1 mM sodium pyruvate, 1×MEM nonessential amino acids, and 100 units mL^−1 penicillin streptomycin (Cellgro), supplemented with 10% certified heat inactivated fetal bovine serum (Sigma-Aldrich, St. Louis, Mo.), at 37° C. in a humidified 5% CO2 incubator. For nuclei visualisation, Jurkat cells were incubated with Hoechst 33258, at a final concentration of 1 μg mL^−1, at 37° C. for 20 minutes.
Cells were checked for viability using Live/Dead stain (Invitrogen) following the manufacturer's protocol. For high resolution microscopy, 10^6 cells were fixed in a 5% formalin solution (Sigma-Aldrich, St. Louis, Mo.) for 15 minutes at 37° C., washed three times with cold PBS, and resuspended in 100 μL of ice cold 90% methanol. Immunostaining was performed on fixed cells using […] for DNA staining, mouse α-calnexin (Abcam) for ER staining, and rabbit α-profilin-1 (Cell Signaling), as a cytoplasmic localized protein. Incubation with the primary antibody for one hour at room temperature was followed by three wash steps with a solution of 2% BSA in PBS and incubation for 40 minutes at room temperature with the following secondary antibodies: Alexa 488 α-mouse (Invitrogen) and goat α-rabbit TRITC (Southern Biotech). To monitor calcium signaling, Jurkat cells were incubated with 5 μM Fluo-3 (Invitrogen) for 20 minutes at 37° C., washed with cold PBS, and loaded into the cell traps. Trapped cells were stimulated with ionomycin (Sigma, St. Louis, Mo.) at various concentrations to release intracellular calcium.
Before each experiment, the microfluidic devices were primed using a solution of 2% BSA in PBS to remove any air bubbles and limit undesirable cell adhesion to the wall. A pressure difference of 3.5 kPa (5.5 kPa for devices with upstream serial-dilution gradient generator) created by gravity was used to drive the flow, resulting to an average flow rate of ˜2 μL h^−1. Cell loading was obtained by pipetting 2 μL of 5×10^6 cell mL^−1 of cell suspension on the chip positioned on the microscope stage. Further experiments (staining, stimulation) were performed by adding 5 μL of 4× chemicals in the inlet hole and flowing over the trapped cells for the desired time. All experiments were performed in a microcontrolled environment (temperature set at 37° C. in a humidified 5% CO2 environment).
A […] (SIMCA-P, Umetrics) was run on a known dataset of objects to determine the two most informative predictors of the number of cells contained in an object. The perimeter and the extent (ratio of pixels in the object to pixels in the total bounding box) were found as being the most informative. To quantify single cell trapping efficiency, the distribution of objects in the perimeter-extent space was fitted to a 2-component Gaussian mixture model for each chamber trap array. The maximum likelihood parameters from each of the two subpopulations were retrieved and represented respectively the percentage of single cell objects and multiple cell objects. Single cell response intensities were obtained by tracking the mean intensity of each object considered as a single cell in the overlaid mask and image over time.
The present trap arrays can also be easily integrated with upstream microfluidic components capable of multiplexing experiments, where cells can be exposed to different extracellular conditions on a single chip. […] After loading cells containing Fluo-3, more than 1,000 individual cells were monitored for an hour after the addition of different concentrations of the calcium ionophore ionomycin. Ionomycin increases intracellular calcium via mobilization of both extracellular and intracellular calcium stores in T cells. As expected, increased concentration of stimulus lead to increased average intracellular calcium concentration (FIG. 17). […]

Test [2] has as its system human embryonic kidney 293 cells. The note with it: clonal HEK 293 cells challenged with caffeine; cited from earlier work.

For `C[C@H](CCC(=O)O)C[C@H](C)C[C@H](C)C(=O)/C=C(\O)[C@H](C)C[C@H](C)C/C=C/[C@@H](C)[C@@H](O)[C@@H](C)[C@@H](O)C[C@@H]1CC[C@@](C)([C@H]2CC[C@@](C)([C@@H](C)O)O2)O1` [ionomycin], the “% Responding Cells” value in test [1] (ionomycin 0.08 μM, chamber 8, 250 tracked cells) turned out to be 4%; in test [1] (ionomycin 0.2 μM, chamber 7, 306 tracked cells), 17%; in test [1] (ionomycin 0.5 μM, chamber 6, 273 tracked cells), 19.1%; in test [1] (ionomycin 0.8 μM, chamber 5, 287 tracked cells), 25.4%; in test [1] (ionomycin 1.4 μM, chamber 4, 322 tracked cells) it was 31.1%; in test [1] (ionomycin 1.8 μM, chamber 3, 263 tracked cells) it was 31.9%. In addition, the “% Responding Cells” value in test [1] (ionomycin 2.2 μM, chamber 2, 328 tracked cells) stood at 33.2%; in test [1] (ionomycin 2.5 μM, chamber 1, 342 tracked cells), 44%.
In the case of `Cn1c(=O)c2c(ncn2C)n(C)c1=O` [caffeine], the “cells responding with an elevation in intracellular calcium” value in test [2] is 40%.
